In patent publication US5288720A, “Angiotensin II receptor blocking 2,3,6 substituted quinazolinones” (American Cyanamid Company, priority 1993, dated 1994):

Tested on: ANGIOTENSIN II VASOPRESSOR RESPONSE
Experiment: AII Challenge: blockade of angiotensin II vasopressor response in conscious SHR
Assay type: in vivo, rat (Conscious Male Okamoto-Aoki SHR)
Details: SHR n=2
Summary of the method: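 Percent blockade is derived from the systolic pressure rise in mmHg, taking each rat's own predose response as 100%. Rats were conscious male Okamoto-Aoki SHR, 16-20 weeks, ~330 g, with aortic and caval cannulas under local procaine. Compound went i.v., i.p. or orally, then angiotensin II challenges (0.05 and 0.1 ug/kg i.v.) at 30-300 min.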

[1] = 3 mg/kg p.o., AII 0.05 mcg/kg IV, 30 min post dose
[2] = 3 mg/kg p.o., AII 0.05 mcg/kg IV, 60 min post dose
[3] = 3 mg/kg p.o., AII 0.05 mcg/kg IV, 90 min post dose
[4] = 3 mg/kg p.o., AII 0.05 mcg/kg IV, 120 min post dose
[5] = 3 mg/kg p.o., AII 0.05 mcg/kg IV, 180 min post dose
[6] = 3 mg/kg p.o., AII 0.05 mcg/kg IV, 240 min post dose
[7] = 3 mg/kg p.o., AII 0.1 mcg/kg IV, 30 min post dose
[8] = 3 mg/kg p.o., AII 0.1 mcg/kg IV, 60 min post dose
[9] = 3 mg/kg p.o., AII 0.1 mcg/kg IV, 90 min post dose
[10] = 3 mg/kg p.o., AII 0.1 mcg/kg IV, 120 min post dose
[11] = 3 mg/kg p.o., AII 0.1 mcg/kg IV, 180 min post dose
[12] = 3 mg/kg p.o., AII 0.1 mcg/kg IV, 240 min post dose
[13] = 10 mg/kg p.o., AII 0.05 mcg/kg IV, 30 min post dose
[14] = 10 mg/kg p.o., AII 0.05 mcg/kg IV, 60 min post dose
[15] = 10 mg/kg p.o., AII 0.05 mcg/kg IV, 90 min post dose
[16] = 10 mg/kg p.o., AII 0.05 mcg/kg IV, 120 min post dose
[17] = 10 mg/kg p.o., AII 0.05 mcg/kg IV, 180 min post dose
[18] = 10 mg/kg p.o., AII 0.05 mcg/kg IV, 240 min post dose
[19] = 10 mg/kg p.o., AII 0.05 mcg/kg IV, 300 min post dose
[20] = 10 mg/kg p.o., AII 0.1 mcg/kg IV, 30 min post dose
[21] = 10 mg/kg p.o., AII 0.1 mcg/kg IV, 60 min post dose
[22] = 10 mg/kg p.o., AII 0.1 mcg/kg IV, 90 min post dose
[23] = 10 mg/kg p.o., AII 0.1 mcg/kg IV, 120 min post dose
[24] = 10 mg/kg p.o., AII 0.1 mcg/kg IV, 180 min post dose
[25] = 10 mg/kg p.o., AII 0.1 mcg/kg IV, 240 min post dose
[26] = 10 mg/kg p.o., AII 0.1 mcg/kg IV, 300 min post dose

## CCCCc1nc2ccc(C(O)C3CCCN(C)C3=O)cc2c(=O)n1Cc1ccc(-c2ccccc2-c2nn[nH]n2)cc1 (single isomer, unassigned; isomer 2) [Example 38, 2-Butyl-6-hydroxy(1-methyl-2-oxo-3-piperidinyl)methyl-3-[[2'-(1H-tetrazol-5-yl)[1,1'-biphenyl]-4-yl]methyl-4(3H)-quinazolinone isomer 2]
[1]
  % Inhibition of AII vasopressor response: 70%
  Average Change (systolic blood pressure response to AII): 7.5 mmHg
[2]
  % Inhibition of AII vasopressor response: 50%
  Average Change (systolic blood pressure response to AII): 12.5 mmHg
[3]
  % Inhibition of AII vasopressor response: 46%
  Average Change (systolic blood pressure response to AII): 13.5 mmHg
[4]
  % Inhibition of AII vasopressor response: 70%
  Average Change (systolic blood pressure response to AII): 7.5 mmHg
[5]
  % Inhibition of AII vasopressor response: 70%
  Average Change (systolic blood pressure response to AII): 7.5 mmHg
[6]
  % Inhibition of AII vasopressor response: 40%
  Average Change (systolic blood pressure response to AII): 15 mmHg
[7]
  % Inhibition of AII vasopressor response: 57%
  Average Change (systolic blood pressure response to AII): 15 mmHg
[8]
  % Inhibition of AII vasopressor response: 20%
  Average Change (systolic blood pressure response to AII): 27.5 mmHg
[9]
  % Inhibition of AII vasopressor response: 32%
  Average Change (systolic blood pressure response to AII): 23.5 mmHg
[10]
  % Inhibition of AII vasopressor response: 52%
  Average Change (systolic blood pressure response to AII): 16.5 mmHg
[11]
  % Inhibition of AII vasopressor response: 28%
  Average Change (systolic blood pressure response to AII): 25 mmHg
[12]
  % Inhibition of AII vasopressor response: 16%
  Average Change (systolic blood pressure response to AII): 29 mmHg
[13]
  % Inhibition of AII vasopressor response: 50%
  Average Change (systolic blood pressure response to AII): 25 mmHg
[14]
  % Inhibition of AII vasopressor response: 40%
  Average Change (systolic blood pressure response to AII): 30 mmHg
[15]
  % Inhibition of AII vasopressor response: 25%
  Average Change (systolic blood pressure response to AII): 37.5 mmHg
[16]
  % Inhibition of AII vasopressor response: 50%
  Average Change (systolic blood pressure response to AII): 25 mmHg
[17]
  % Inhibition of AII vasopressor response: 5%
  Average Change (systolic blood pressure response to AII): 47.5 mmHg
[18]
  % Inhibition of AII vasopressor response: -5%
  Average Change (systolic blood pressure response to AII): 52.5 mmHg
[19]
  % Inhibition of AII vasopressor response: 0%
  Average Change (systolic blood pressure response to AII): 50 mmHg
[20]
  % Inhibition of AII vasopressor response: 35%
  Average Change (systolic blood pressure response to AII): 37.5 mmHg
[21]
  % Inhibition of AII vasopressor response: 39%
  Average Change (systolic blood pressure response to AII): 35 mmHg
[22]
  % Inhibition of AII vasopressor response: 35%
  Average Change (systolic blood pressure response to AII): 37.5 mmHg
[23]
  % Inhibition of AII vasopressor response: 43%
  Average Change (systolic blood pressure response to AII): 32.5 mmHg
[24]
  % Inhibition of AII vasopressor response: 13%
  Average Change (systolic blood pressure response to AII): 50 mmHg
[25]
  % Inhibition of AII vasopressor response: 22%
  Average Change (systolic blood pressure response to AII): 45 mmHg
[26]
  % Inhibition of AII vasopressor response: 4%
  Average Change (systolic blood pressure response to AII): 55 mmHg
